Laboratory results taken from US10533015B1, “Opioid receptor antagonist prodrugs” (Nirsum Laboratories, Inc., priority 2019, dated 2020).
Like-named read-outs stand apart in the source and are kept apart here.

Experiments:
[1] = Plasma stability assay, rat plasma; format: in vitro ADME; conditions: 10 μM, 37° C.
Description: Plasma stability determination of the test compounds in rat, dog, cynomolgus monkey and human plasma is performed using HPLC-MS. For rat, incubations are carried out in 96-well polypropylene plates in 5 aliquots of 70 μL each (one for each time point). […] Five time points are analyzed (0, 15, 120, 480 and 1440 min). For dog, monkey and human, test compounds (2 μM, final solvent concentration 1%) were also incubated at 37° C. and analyzed at five time points (0, 10, 30, 60 and 120 min). All incubations are performed in duplicates. The samples are analyzed by HPLC-MS. The percentage of parent compound remaining after incubation in plasma is determined.

[2] = heating temp. 40 °C, obs. temp. 40 °C
[3] = heating temp. 60 °C, obs. temp. 25 °C

| Structure (SMILES) | % remaining at time point ([1]; 0 min) [%] | % remaining at time point ([1]; 15 min) [%] | % remaining at time point ([1]; 120 min) [%] | % remaining at time point ([1]; 480 min) [%] | % remaining at time point ([1]; 1440 min) [%] | Approximate Solubility (mg/mL) in Excipient: Cottonseed oil [2] [mg/mL] | Approximate Solubility (mg/mL) in Excipient: Cottonseed oil [3] [mg/mL] | Approximate Solubility (mg/mL) in Excipient: Ethanol [2] [mg/mL] | Approximate Solubility (mg/mL) in Excipient: Sesame oil [2] [mg/mL] | Approximate Solubility (mg/mL) in Excipient: Sesame oil [3] [mg/mL] | Equilibrium solubility (mg/mL) Water [2] [mg/mL] | Approximate Solubility (mg/mL) in Excipient: Sesame oil (heating temp. 60 °C, obs. temp. 40 °C) [mg/mL] | Approximate Solubility (mg/mL) in Excipient: Castor oil (Castor oil, heating temp. 40 °C, obs. temp. 40 °C) [mg/mL] |
| --- | --- | --- | --- | --- | --- | --- | --- | --- | --- | --- | --- | --- | --- |
| C=C1CC[C@@]2(O)C3Cc4ccc(OC(=O)OCCCCCCCCCC)c5c4[C@@]2(CCN3CC2CC2)[C@H]1O5 [Compound 18, (4aS,7aS,12bS)-3-(cyclopropylmethyl)-4a-hydroxy-7-methylene-2,3,4,4a,5,6,7,7a-octahydro-1H-4,12-methanobenzofuro[3,2-e]isoquinolin-9-yl decyl carbonate] | 100 | 0.6 | 0.3 | 0.1 | 0 | >403 | >400 | >209 | >403 | >402 | <0.0002 | – | – |
| CCCCC/C=C\C/C=C\CCCCCCCC(=O)Oc1ccc2c3c1O[C@H]1C(=O)CC[C@@]4(O)C(C2)N(CC2CC2)CC[C@]314 [Compound 53, (4aS,7aR,12bS)-3-(cyclopropylmethyl)-4a-hydroxy-7-oxo-2,3,4,4a,5,6,7,7a-octahydro-1H-4,12-methanobenzofuro[3,2-e]isoquinolin-9-yl (9Z,12Z)-octadeca-9,12-di.enoate] | 100 | 46.85 | 19.6 | 7.3 | 1.9 | – | >408.5 | – | – | >401.9 | – | >406.3 | – |
| C=C1CC[C@@]2(O)C3Cc4ccc(OC(=O)CCCCCCC/C=C\CCCCCCCC)c5c4[C@@]2(CCN3CC2CC2)[C@H]1O5 [Compound 36, (4aS,7aS,12bS)-3-(cyclopropylmethyl)-4a-hydroxy-7-methylene-2,3,4,4a,5,6,7,7a-octahydro-1H-4,12-methanobenzofuro[3,2-e]isoquinolin-9-yl oleate] | 100 | 74.4 | 66.3 | 39.8 | 19.1 | >418.7 | >407 | 20 to 30 | >411.6 | >408 | – | – | >217 |
| CCCCCCCCCCCCCC(=O)Oc1ccc2c3c1O[C@H]1C(=O)CC[C@@]4(O)C(C2)N(CC2CC2)CC[C@]314 [Compound 57, (4aS,7aR,12bS)-3-(cyclopropylmethyl)-4a-hydroxy-7-oxo-2,3,4,4a,5,6,7,7a-octahydro-1H-4,12-methanobenzofuro[3,2-e]isoquinolin-9-yl tetradecanoate] | 100 | 10.5 | 3.2 | 1.2 | 0 | – | >423.7 | – | – | >417.3 | <0.001 | – | – |
| CCCCCCCCCCCCCCCCCC(=O)Oc1ccc2c3c1O[C@H]1C(=O)CC[C@@]4(O)C(C2)N(CC2CC2)CC[C@]314 [Compound 54, (4aS,7aR,12bS)-3-(cyclopropylmethyl)-4a-hydroxy-7-oxo-2,3,4,4a,5,6,7,7a-octahydro-1H-4,12-methanobenzofuro[3,2-e]isoquinolin-9-yl stearate] | 100 | 98.8 | 62.4 | 45.6 | 19.4 | – | <51 | – | – | <50 | <0.001 | – | – |
